PMC12598805, “Crystal Structure–Activity Relationship of Some MeO Phenylacrylonitriles: Dual Antimicrobial–Cytotoxic Effects and in Silico Perspectives” (ChemistryOpen, 2025)
In brackets after ≈: the same amount, converted by molar mass.

How the values were obtained:
[1] = system: Klebsiella pneumoniae (ATCC-70063); assay: Agar diffusion, zone of inhibition; assay type: cell-based; conditions: Klebsiella pneumoniae, ATCC70063; K.pneumoniae; compounds at 50 mg mL^−1
From the text: The antibacterial and antifungal activities were reported utilizing the method described by the Clinical & Laboratory Standards Institute.^[ [31], [32] ^] Agar diffusion method was used to determine the antimicrobial activity of the synthesized substances. The media used were mueller hinton agar (MHA) for bacteria and sabouraud‐dextrose agar (SDA) for fungi (Merck), as recommended by the manufacturer.
The synthesized compounds were initially investigated for their antimicrobial activity to elucidate the potential therapeutic utility against various pathogenic microbes using the agar plate diffusion method. The compounds were tested at a concentration of 50 mg mL^−1, and the antibiotics (ampicillin, kanamycin, and amphotericin B) were used at 5 mg mL^−1. […] K.pneumoniae and B.cereus were resistant to ampicillin, while they were susceptible to kanamycin with inhibition values of 30 and 26 mm, respectively. No antimicrobial activity of the compounds was observed against E.faecalis, S.typhimurium, K.pneumoniae, and for the fungus compared to Amphotericin B (20 mm). […]
Klebsiella pneumoniae (ATCC-70063)
ATCC: American Type Culture Collection; NRRL: Northern Regional Research Laboratory The compounds 2(a-c) obtained could only be completely solubilised with dimethyl sulphoxide (DMSO) and the highest possible stock solutions of 50 mg.mL-1 were prepared. To these wells 50 μl of the previously prepared substances were transferred using sterile micropipette tips. For comparison, Ampicillin and kanamycin antibiotics for bacteria and Amphotericin B antibiotics for fungus were used as positive controls and DMSO was used as negative control. The prepared petri plates were kept at +4°C for about 1 hour and then the bacterial cultures were incubated at 37°C for 18-24 hours and mould cultures at 27-30°C for 48-72 hours. The zones formed were measured millimetrically with callipers. The experiments were performed with three repetitions. […]

[2] = system: Bacillus subtilis (ATCC-19659); assay: Broth microdilution MIC; assay type: cell-based; conditions: ATCC19659, B.subtilis, read-out: MIC
Method: ATCC: American Type Culture Collection; NRRL: Northern Regional Research Laboratory The compounds 2(a-c) obtained could only be completely solubilised with dimethyl sulphoxide (DMSO) and the highest possible stock solutions of 50 mg.mL-1 were prepared. […]
3.1. Determination of Minimum Inhibition Concentration (MIC)
The minimum inhibition concentration (MIC) values of the compounds 2(a-c) against the test bacteria used in the study were determined according to the broth microdilution method.[1-2] MHB or SDB was used as test medium and bacterial and yeast suspensions were prepared at 0.5 Mc Farland concentration for each test bacteria. Double layer serial dilutions were prepared in "U" type 96-well microtiter plates. Medium+bacteria suspensions containing only medium in the first row, medium+bacteria in the second row and the final concentrations of the synthesised substances in the other rows between 25 mg.mL-1 and […] were added to the wells with a final volume of 200
μL. Ampicillin, Kanamycin and Amphotericin B standard antibiotics were used as positive controls.
Bacteria were incubated at 37±0.1 °C and C. albicans at 30±0.1 °C for 24-48 hours and the lowest concentration without growth was determined as MIC. Tests were performed in two parallel runs and mean values were given as a result. […]

[3] = Cytotoxicity on healthy cells, CCK8 cell viability; assay type: cell-based, mouse; conditions: mouse, L929 mouse fibroblast cells, read-out: Cytotoxic activity IC50; for IC50 at 24 h: L929, 24 h; for IC50 at 48 h: L929, 48 h
From the text: (§1) We investigated the cytotoxic effects of acrylonitrile derivatives 2(a–c) on human lung carcinoma (A549, CCL‐185) cells purchased from American Culture Collection and human breast carcinoma (MCF‐7) cells purchased from Republic of Turkey Ministry of Agriculture and Forestry Şap Institute, (HUKUK, 00092502), In addition, mouse fibroblast cells (L929, CCL‐1) purchased from American Culture Collection were used to observe the effects of the compounds on healthy cells. In 25 T Flask, A549 cells were grown in dulbecco's modified eagle's medium, MCF‐7, and L929 cells were grown in eagle's minimum essential medium (EMEM), 10% fetal bovine serum and 1% Penicillin‐Streptomycin at 37 °C in a 5% CO2 and 100% humidified incubator. Cell proliferation was checked every day. Cells were taken into the experiment when the cell density reached 70% to 80%. (See Supporting Information for experimental preparation of biological studies).
(§2) The compounds 2a, 2b, and 2c were dissolved in 99.8% Dimethyl sulfoxide (DMSO) respectively, as
(§3) 10 mM main stock. To prepare the doses of acrylonitrile compounds used in the experiment to be
(§4) applied to the cells, five different concentrations of 31.25; 62.5; 125; 250 and 500 μM were prepared
(§5) by diluting the main stock solutions (10 mM) with the medium selected according to the cells. 5-
(§6) Fluorouracil (5-FU) was selected as a positive control in the study. After the 5-FU main stock solution
(§7) was dissolved with DMSO to be 10 mM, the concentrations to be used were diluted with the selected
(§8) media and made ready for the experimental plan. The concentrations used for 5-FU were prepared in
(§9) the same doses used for acrylonitrile derivatives. For the negative control group, groups containing
(§10) only media and no substance were used. Prepared acrylonitrile compounds and 5-FU concentrations
(§11) were added to the wells in three replicates for each dose, and their effects on cell viability at 24 and 48
(§12) Trypan blue solution (Gibco, 1525061) was used to distinguish between living and dead cells in the
(§13) study. Trypan blue passes uncontrollably through the membrane of dead cells that have lost their cell
(§14) membrane integrity and stains the cell blue. Living cells, on the other hand, are not stained because
(§15) Live cell counts were performed using trypan blue using a
(§16) cell counter (Logos Luna II).
(§17) In order to detach the cells adhering to the flasks from the bottom, 500 μL of 0.25% Trypsin-EDTA
(§18) (Gibco, 15400054) solution was added and treated for five minutes.
(§19) detach from the bottom under an inverted microscope (Zeiss Primovert, Germany), medium containing
(§20) 10% FBS was added. After centrifugation at 300 g for 5 minutes and discarding the medium, 1 mL of
(§21) medium was added and the cells were seeded into 96-well culture dishes as 1x10^4 cells in 100 μL per
(§22) Cell Counting Kit 8 (CCK8; Medchem, 146436) was used to determine cell viability. After adding 20 μL
(§23) of CCK8 solution to each well in the dark, 96-well culture dishes were wrapped with aluminum foil and
(§24) kept in a CO2 incubator at 37 °C for 2 hr. Then, it was automatically read with a microplate reader
(§25) (Chromate) at 450 and 630 nm wavelengths. The following formula was used to determine cell
(§26) % Viability = (Sample Well−Blank) (Negative Control−Blank)×100 (1)
(§27) The half-maximal inhibitory concentration (IC50) was calculated as 50% cell death causing dose
(§28) compared to the control group. All data are given as the mean percent fraction of control ± SEM.
(§29) Statistical analysis was done by one-way analysis of variance (ANOVA), followed by Tukey’s multiple
(§30) comparison tests. IBM SPSS Statistics 22 was used to utilize statistical analysis. […]

[4] = system: mouse fibroblast cells (L929, CCL‐1); assay: Cytotoxicity on healthy cells, CCK8 cell viability; assay type: cell-based
From the text: as §1, §2, §3, §4, §5, §6, §7, §8, §9, §10, §11, §12, §13, §14, §15, §16, §17, §18, §19, §20, §21, §22, §23, §24, §25, §26, §27, §28, §29, §30

Row | MIC [2] | SMILES | zone of inhibition at 50 mg/mL [1] | IC50 at 24 h [3] | IC50 at 48 h [3] | decrease in cell viability ([4]; L929, 24 h, 31.25 μM) | decrease in cell viability ([4]; L929, 24 h, 62.5 μM) | decrease in cell viability ([4]; L929, 24 h, 125 μM) | decrease in cell viability ([4]; L929, 24 h, 250 μM) | decrease in cell viability ([4]; L929, 24 h, 500 μM) | decrease in cell viability ([4]; L929, 48 h, 31.25 μM) | decrease in cell viability ([4]; L929, 48 h, 62.5 μM) | decrease in cell viability ([4]; L929, 48 h, 125 μM) | decrease in cell viability ([4]; L929, 48 h, 250 μM) | decrease in cell viability ([4]; L929, 48 h, 500 μM) | IC50 ([4]; L929, 24 h, read-out: Cytotoxic activity IC50)
1 | 25 mg/mL (≈ 106 mM) | COc1ccc(C=C(C#N)c2ccccc2)cc1 [2a, 3‐(4‐methoxyphenyl)‐2‐phenylacrylonitrile] | < 6 mm | 351 µM | < 31.2 µM | 13% | 19% | 16% | 35% | 73% | 52% | 53% | 55% | 54% | 87% | 
2 | 25 mg/mL (≈ 98.7 mM) | COc1ccc(/C=C(\C#N)c2ccc(F)cc2)cc1 [2b] | < 6 mm | < 250 µM | < 31.2 µM | 45% | 44% | 43% | 50% | 75% | 52% | 54% | 53% | 53% | 80% | 250 µM
3 | 25 mg/mL (≈ 67.3 mM) | COc1ccc(/C=C(\C#N)c2cc(C(F)(F)F)cc(C(F)(F)F)c2)cc1 [2c] | < 6 mm | 410 µM | 391 µM | 8% | 10% | 19% | 12% | 71% | 14% | 16% | 20% | 24% | 80% | 
